Earlier results in patent US20110052647A1, “Antidepressant Oral Pharmaceutical Compositions” (priority 2005, published 2011).

Experiments:
[1] = oral administration of capsules containing enteric-coated pellets
[2] = system: dopaminergic, adrenergic, cholinergic or histaminergic receptors; details: in vitro
[3] = not given; remark: listed apart in the source

In the case of `CNCC[C@H](Oc1cccc2ccccc12)c1cccs1` [Duloxetine, (S)-N-methyl-3-(1-naphthyloxy)-3-(2-thienyl)propan-1-amine], the “dosage hydrolyzed to 1-naphthol” value (pH of 1.0, within one hour) is listed as 50%, the “dosage degrades to 1-Naphthol” value (pH of 2.0, in one hour) is listed as 10% and the “time for 10% degradation” value (pH of 4.0) is listed as “up to 63 hours”. The “mean plasma elimination half-life” value [1] was 12.1 h, the “median time to maximum concentration (Tmax)” value [1] was 6 h and the “affinity for dopaminergic, adrenergic, cholinergic or histaminergic receptors” value [2] was “no significant affinity”. The “inhibition of monoamine oxidase (MAO)” value (monoamine oxidase (MAO)) was “does not inhibit” and the “pH values at which unstable in solution” value [3] was “less than 2.5”.
